Data as given in patent publication US20240140953A1, “INHIBITORS OF MENIN-MLL INTERACTION” (BIOMEA FUSION, INC., priority 2018, published 2024).
Where two headings read alike, the source gives them in different places.

What was measured:
Menin-MLL = Menin-MLL (Homo sapiens (Human), UniProt O00255); experiment: Menin-MLL in vitro inhibitory activity (Example 101a, Table 2); format: cell-based
MV-4-11 = experiment: Long term proliferation assay (Table 3A), MV-4-11; format: cell-based; details: Homo sapiens, MV4-11
Protocol: (§1) Example 5b: IC50 determination of compounds of invention in various cell lines (Long Term Proliferation Assay)
(§2) The following 5 cell lines are used or can be used for the long term proliferation assay.
(§3) Compounds of invention are tested in the 5 suspension lines by 14-day long-term proliferation assay.
(§4) The compound is tested in 10-pt dose titration (client will determine the starting concentration and the dilution scheme) and the final DMSO concentration is kept at 0.2%.
(§5) Vehicle and media control are also included. All treatments are done in triplicate.
(§6) 3 plates are used for each cell line and 15 plates are used for the 5 cell lines.
(§7) • 1) On Day 0, in a flat bottom 96-well plate, add 100 μL of cells per well at the densities optimized. • 2) Prepare compounds in DMSO at 500× final concentration. Dilute the compounds with DMSO at the dilution. • 3) Dilute the compounds in media at 3×final concentration. Add 50 μL of compound or DMSO at 3× final concentration to each well. Final volume in each well is 150 μL, and final concentration of DMSO is 0.2%. Also include 3 untreated control wells, by adding 50 μL of media alone. 4) Incubate plates for 96 hours. • 5) Count the cells using the Acumen, with capabilities for 96-well plates. Pipette cells up and down to mix in each well, and add desired volume of cells to a new flat bottom poly-D-lysine 96-well plate. Add Calcein AM at 1 μM final concentration. Let cells sit at RT for 10 mins followed by a quick spin to get cells settled on the bottom of the wells. Incubate the plate for additional 40 mins in the incubator. Take out the plate and read by Acumen. Calculate the cell numbers taken into account the dilution factors. • 6) Split the master plate. To do this take the total viable cell count calculated using step 5). Take the average of the replicates for each dose in order to be used in splitting the cells. • 7) Use a 96 well V-bottom plate to spin down the cells to remove old media and compound to split the cells. Based on the split ratio place the proper amount of media and cells into the V-bottom plate, and spin the plate at 1100 rpm for 5 minutes. • 8) Following the spin remove the media, careful not to disturb the cellpellet. • 9) Re-suspend pellet in 100 μL fresh media, and add to a new 96-well flat bottom plate. • 10) Add fresh compound, in the same manner as Step 3). • 11) Incubate plates for 72 hours. Repeat steps 5)-10) on Day 7. • 12) Incubate plates for 96 hours. Repeat Step 5)-10) on Day 11. • 13) Incubate 72 hours and repeat step 5) to take a final count. • 14) Data Analysis
(§8) To calculate growth for days 4, 7, 11, and 14: • Calculate the split factor for day 4 to 7, day 7 to 11, and day 11-14.

MOLM-13 [1] = experiment: Long term proliferation assay (Table 3A), MOLM-13; format: cell-based; details: Homo sapiens
Protocol: as §1, §2, §3, §4, §5, §6, §7, §8

menin = menin (Homo sapiens (Human), UniProt O00255); experiment: Kd (Table 3A); format: binding
KG-1 [2] = experiment: Long term proliferation, Cell Titer-Glo (Table 3B), KG-1; format: cell-based; details: Homo sapiens, KG-1, Cell Titer-Glo
MOLM-13 [3] = experiment: Long term proliferation, Cell Titer-Glo (Table 3B), MOLM-13; format: cell-based; details: Homo sapiens, MOLM-13, Cell Titer-Glo
OCI-AML-3 [4] = experiment: Long term proliferation, Cell Titer-Glo (Table 3B), OCI-AML-3; format: cell-based; details: Homo sapiens, OCI-AML-3, Cell Titer-Glo
MV4-11 [5] = experiment: Long term proliferation, Cell Titer-Glo (Table 3B), MV4-11; format: cell-based; details: Homo sapiens, MV4-11, Cell Titer-Glo
KG-1 [6] = experiment: Long term proliferation, InCell (Table 3C), KG-1; format: cell-based; details: Homo sapiens, KG-1, InCell
Protocol: as §3, §4, §5, §7, §8

MOLM-13 [7] = experiment: Long term proliferation, InCell (Table 3C), MOLM-13; format: cell-based; details: Homo sapiens, MOLM-13, InCell
Protocol: as §3, §4, §5, §7, §8

OCI-AML-3 [8] = experiment: Long term proliferation, InCell (Table 3C), OCI-AML-3; format: cell-based; details: Homo sapiens, OCI-AML-3, InCell
Protocol: as §3, §4, §5, §7, §8

MV4-11 [9] = experiment: Long term proliferation, InCell (Table 3C), MV4-11; format: cell-based; details: Homo sapiens, MV4-11, InCell
Protocol: as §3, §4, §5, §7, §8

[10] = MV-4-11, Day 4, read-out: MV-4-11 Day 4 IC50
[11] = MV-4-11, Day 11, read-out: MV-4-11 Day 11 IC50
[12] = 96 h, MOLM-13, Day 4, read-out: MOLM-13 Day 4 IC50
[13] = 264 h, MOLM-13, Day 11, read-out: MOLM-13 Day 11 IC50
[14] = 96 h, Day 4, read-out: Day 4 IC50
[15] = 168 h, Day 7, read-out: Day 7 IC50
[16] = 264 h, Day 11, read-out: Day 11 IC50
[17] = 336 h, Day 14, read-out: Day 14 IC50

Sequence of menin (O00255 whole entry, species assumed): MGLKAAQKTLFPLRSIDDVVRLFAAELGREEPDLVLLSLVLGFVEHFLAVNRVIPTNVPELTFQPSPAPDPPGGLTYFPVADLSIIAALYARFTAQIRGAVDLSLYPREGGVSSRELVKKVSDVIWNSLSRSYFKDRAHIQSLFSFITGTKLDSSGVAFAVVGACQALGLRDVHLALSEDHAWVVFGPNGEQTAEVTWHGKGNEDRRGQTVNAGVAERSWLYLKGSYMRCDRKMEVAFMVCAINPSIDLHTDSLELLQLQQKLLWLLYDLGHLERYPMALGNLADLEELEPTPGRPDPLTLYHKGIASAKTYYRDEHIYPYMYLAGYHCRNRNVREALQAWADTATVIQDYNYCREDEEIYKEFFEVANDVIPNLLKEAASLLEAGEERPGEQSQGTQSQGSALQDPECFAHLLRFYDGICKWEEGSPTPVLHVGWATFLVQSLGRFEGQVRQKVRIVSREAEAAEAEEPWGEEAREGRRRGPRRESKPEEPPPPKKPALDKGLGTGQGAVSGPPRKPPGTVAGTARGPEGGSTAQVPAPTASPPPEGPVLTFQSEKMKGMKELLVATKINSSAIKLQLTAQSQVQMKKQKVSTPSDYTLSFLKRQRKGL
Sequence of Menin-MLL (O00255 whole entry): as the sequence (O00255 whole entry, species assumed) above

Structure (SMILES): O=C(Nc1ccc(-c2cc3c(N4CCOCC4)ncnc3[nH]2)cc1)Nc1cc(-c2cccnc2)no1 [Compound 2, 1-(4-(4-morpholino-7H-pyrrolo[2,3-d]pyrimidin-6-yl)phenyl)-3-(3-(pyridin-3-yl)isoxazol-5-yl)urea]
- IC50 (Menin-MLL): 240 nM
- IC50 (MV-4-11; [10]): 174 nM
- IC50 (MV-4-11; [11]): 55 nM
- IC50 (MOLM-13 [1]; [12]): 74 nM
- IC50 (MOLM-13 [1]; [13]): 54 nM
- Kd (menin): > 1000 nM

Structure (SMILES): O=C(Nc1ccc(-c2cc3c(N4CCOCC4)ncnc3[nH]2)cc1)Nc1cc(-c2ccncc2)no1 [Compound 8, 1-{4-[4-(morpholin-4-yl)-7H-pyrrolo[2,3-d]pyrimidin-6-yl]phenyl}-3-[3-(pyridin-4-yl)-1,2-oxazol-5-yl]urea]
- IC50 (MV-4-11; [10]): 355 nM
- IC50 (MV-4-11; [11]): 71 nM
- IC50 (MOLM-13 [1]; [12]): 224 nM
- IC50 (MOLM-13 [1]; [13]): 55 nM
- Kd (menin): 250 nM
- IC50 (KG-1 [2]; [14]): 4900 nM
- IC50 (KG-1 [2]; [15]): 2950 nM
- IC50 (KG-1 [2]; [16]): 2140 nM
- IC50 (KG-1 [2]; [17]): 680 nM
- IC50 (MOLM-13 [3]; [14]): 320 nM
- IC50 (MOLM-13 [3]; [15]): 200 nM
- IC50 (MOLM-13 [3]; [16]): 150 nM
- IC50 (MOLM-13 [3]; [17]): 250 nM
- IC50 (OCI-AML-3 [4]; [14]): 590 nM
- IC50 (OCI-AML-3 [4]; [15]): 560 nM
- IC50 (OCI-AML-3 [4]; [16]): 550 nM
- IC50 (OCI-AML-3 [4]; [17]): 550 nM
- IC50 (MV4-11 [5]; [14]): 540 nM
- IC50 (MV4-11 [5]; [15]): 100 nM
- IC50 (MV4-11 [5]; [16]): 200 nM
- IC50 (MV4-11 [5]; [17]): 60 nM
- IC50 (KG-1 [6]; [14]): 3240 nM
- IC50 (KG-1 [6]; [16]): 2090 nM
- IC50 (MOLM-13 [7]; [14]): 370 nM
- IC50 (MOLM-13 [7]; [16]): 190 nM
- IC50 (OCI-AML-3 [8]; [14]): 490 nM
- IC50 (OCI-AML-3 [8]; [16]): 540 nM
- IC50 (MV4-11 [9]; [14]): 350 nM
- IC50 (MV4-11 [9]; [16]): 280 nM
